In patent US20200289482A1, “CYSTIC FIBROSIS TRANSMEMBRANE CONDUCTANCE REGULATOR MODULATORS FOR TREATING AUTOSOMAL DOMINANT POLYCYSTIC KIDNEY DISEASE” (The Johns Hopkins University, priority 2017, published 2020):

Columns and labels:
[1] = test system: model ADPKD cell line (PN=pkd−/− knockout); assay: In vitro cystogenesis (3D Matrigel culture), cyst size; format: cell-based, mouse; set-up: cyst size, drug treatment regime incl. established cysts: dose or concentration left out as unconfirmed
[2] = test system: intracellular Ca2+ in PN cells; assay: Fura-2 Ca2+ imaging assay; format: cell-based, mouse; settings: VX-809 10 μM 16 h
Procedure: FIG. 5A, FIG. 5B, FIG. 5C, FIG. 5D, FIG. 5E, and FIG. 5F show intracellular Ca2+ (F340/F380) levels obtained by ratiometric Fura-2 AM analysis of PN cells treated with VX-809 (10 μM) for 16 h. (FIG. 5A) Representative traces of intracellular Ca2+ release in response to ATP (100 μM) in PN cells and cells treated with VX-809 (10 μM). (FIG. 5B, FIG. 5C) Graphs summarizing resting calcium levels (FIG. 5B) and the average amplitude of Ca2+ release (FIG. 5C) in response to ATP. (FIG. 5D) Representative traces of ER Ca2+ release in response to thapsigargin (4 μM) in PN cells treated with VX-809. (FIG. 5E, FIG. 5F) Resting calcium levels (FIG. 5E) and the average amplitude of Ca2+ release (FIG. 5F) in response to thapsigargin. Amplitude was measured as the […] of the signal base to peak Δf/f. Significance between the two groups was analyzed using Student's t-test, n=4-5). *P<0.05, ***P<0.001.
Ca^2+-dependent signal transduction is associated with cyst formation (26), (29). […] To address the effect of VX-809 on this Ca^2+ release, the cells were treated with thapsigargin, a specific inhibitor of the ER Ca^2+-ATPase which, when applied, allows Ca^2+ to leak out of the ER through independent Ca^2+-permeable pathways (33). A small effect of VX-809 on resting Ca^2+ was observed.
On Day 5 of cell culture, the cells were loaded with the cell-permeant acetoxymethyl (AM) ester of the calcium indicator fura-2 (fura-2/AM) at 37° C. for 90 min. Measurements were made on a Zeiss inverted microscope equipped with a Sutter Lambda 10-2 controller and filter wheel assembly. For ATP stimulation experiments, the cells were exposed to 100 μM ATP diluted in the imaging buffer. A Zeiss FluorArc mercury lamp was used to excite the cells at 340 and 380 nm, and the emission response was measured at 510 nm. Cell fluorescence was measured in response to excitation for 1000 ms at 340 nm and 200 ms at 380 nm once every 4 s. Image acquisition, image analysis, and filter wheel control were performed with IPLab software (see (25)).

[3] = test system: PC2; assay: Western blot of PC2 expression; format: cell-based, mouse; settings: PN cells, endogenous PC2
Procedure: FIG. 6A and FIG. 6B show PC2 expression is unchanged by VX-809. (FIG. 6A) Western blot showing expression of PC2 in treated or control cells. (FIG. 6B) Columns represent the means±SEM of the PC2 expression. The data were analyzed by non-parametric t-test. The experiment was repeated six (control) or seven times;
PC2 is a 968-amino acid protein with an approximate molecular weight of 100 kDa in its monomeric form. To determine whether VX-809 affects PC2 protein expression, western blot experiments were conducted on PN cells to determine the resting levels of endogenous PC2.

[4] = test system: PC2; assay: Confocal microscopy localization of PC2; format: cell-based; settings: VX-809 treated vs control cells; ER, Golgi and PM markers
Text: FIG. 17A and FIG. 17B show images of confocal microscopy localization studies of PC2 and localization markers in control and treated cells (FIG. 17A) and graphs showing Pearson's correlation coefficient for PC2 and localization markers in control and VX-809 treated cells (FIG. 17B).
(§1) The localization of PC2 and CFTR in control cells was compared to the localization of PC2 and CFTR localization in VX-809 treated cells.

[5] = target: CFTR (Mus musculus, UniProt P26361); assay: Confocal microscopy localization of CFTR; format: cell-based; set-up: endogenous in cells; settings: VX-809 treated vs control cells; ER, Golgi and PM markers
Sequence of CFTR (P26361 whole entry): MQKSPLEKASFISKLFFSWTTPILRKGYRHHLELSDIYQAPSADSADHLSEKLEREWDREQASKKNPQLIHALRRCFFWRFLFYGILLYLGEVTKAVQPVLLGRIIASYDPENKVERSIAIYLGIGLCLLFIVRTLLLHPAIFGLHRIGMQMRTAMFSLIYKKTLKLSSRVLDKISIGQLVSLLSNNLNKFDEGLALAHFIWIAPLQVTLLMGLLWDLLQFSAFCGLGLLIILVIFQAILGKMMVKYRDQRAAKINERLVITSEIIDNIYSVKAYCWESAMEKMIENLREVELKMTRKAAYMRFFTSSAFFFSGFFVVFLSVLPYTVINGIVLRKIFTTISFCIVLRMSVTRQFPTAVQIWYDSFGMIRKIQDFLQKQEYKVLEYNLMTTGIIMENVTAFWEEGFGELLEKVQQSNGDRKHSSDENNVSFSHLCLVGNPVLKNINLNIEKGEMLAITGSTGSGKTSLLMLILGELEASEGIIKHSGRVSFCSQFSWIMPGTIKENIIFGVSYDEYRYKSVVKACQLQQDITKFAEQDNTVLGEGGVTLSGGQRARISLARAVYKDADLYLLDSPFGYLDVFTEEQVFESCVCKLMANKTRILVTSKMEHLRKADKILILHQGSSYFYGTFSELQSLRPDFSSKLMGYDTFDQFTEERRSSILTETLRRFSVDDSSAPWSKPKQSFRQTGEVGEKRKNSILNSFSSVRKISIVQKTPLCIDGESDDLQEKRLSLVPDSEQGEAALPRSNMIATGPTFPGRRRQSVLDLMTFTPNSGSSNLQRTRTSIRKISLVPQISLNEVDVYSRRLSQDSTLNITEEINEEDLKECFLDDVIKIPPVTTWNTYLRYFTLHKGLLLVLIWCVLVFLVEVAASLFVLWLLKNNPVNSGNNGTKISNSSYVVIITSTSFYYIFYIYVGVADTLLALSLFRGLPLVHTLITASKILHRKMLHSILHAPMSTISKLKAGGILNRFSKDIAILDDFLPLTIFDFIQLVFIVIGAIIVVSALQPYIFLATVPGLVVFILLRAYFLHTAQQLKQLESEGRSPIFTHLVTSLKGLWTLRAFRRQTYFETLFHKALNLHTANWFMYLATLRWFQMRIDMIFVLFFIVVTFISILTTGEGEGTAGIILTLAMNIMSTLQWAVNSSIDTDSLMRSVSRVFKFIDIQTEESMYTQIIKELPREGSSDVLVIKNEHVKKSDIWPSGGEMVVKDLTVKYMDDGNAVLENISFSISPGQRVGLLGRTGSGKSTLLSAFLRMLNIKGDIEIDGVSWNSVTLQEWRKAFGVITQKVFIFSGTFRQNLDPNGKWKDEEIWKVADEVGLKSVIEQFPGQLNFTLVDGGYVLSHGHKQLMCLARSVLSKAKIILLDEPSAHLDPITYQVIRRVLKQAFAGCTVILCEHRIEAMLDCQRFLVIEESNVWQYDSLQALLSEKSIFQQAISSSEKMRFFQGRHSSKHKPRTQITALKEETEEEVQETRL
Text: FIG. 18A and FIG. 18B show images of confocal microscopy localization studies of CFTR and localization markers in control and treated cells (FIG. 18A) and graphs showing Pearson's correlation coefficient for CFTR and localization markers in control and VX-809 treated cells (FIG. 18B).
as §1

[6] = test system: Hsp90; assay: Western blot of Hsp90 in PN cells; format: cell-based, mouse; settings: VX-809 10 μM 16 h
Procedure: FIG. 8A, FIG. 8B, FIG. 8C, FIG. 8D, FIG. 8E, FIG. 8F, FIG. 8G, and FIG. 8H show chaperone expression is altered in PH and PN cells by VX-809. (FIG. 8A) Western blot showing expression of HSP27, 70 and HSP 90 in VX-809 treated or control PN cells. […] (FIG. 8E). Western blot of HSP27, 70 and 90 in PH vs. PN cells. […] Whereas, Hsp70 is higher in PH vs. PN cells. Data were analyzed by non-parametric t test. Experiment was repeated 4-5 times. Cells were grown in 10-cm culture dishes at permissive conditions (33° C.) with γ-interferon in culture media. Cells were then transferred to non-permissive conditions at 37° C., γ-interferon free culture media and evaluated at full confluence. At day four, cells were treated with VX-809 (10 μM) for 16 h and harvested on fifth day for assay. *P<0.05., **P<0.01, ***P<0.001, ****P<0.0001; To facilitate their growth in the kidney, cysts have developed an altered network of proteins that most likely serves to protect them from stress (34). Next, it was determined whether VX-809 would alter the levels of Hsps in pkd−/− mice and in PN cells. […] Hsp 27, 70 and 90 are all elevated in cystic kidneys compared to normal controls. […] There is no change in Hsp 40. […] Both sets of data are consistent with an alteration in the heat shock response to cyst growth.

## lumacaftor [VX-809]
[1]; 10 μM, plus or minus forskolin, treated on Days 0, 2, 4, 6, 8, 10, 12, 14, pictures Day 16
  cyst growth: reduce cyst growth equally well in the presence and absence of forskolin
[1]; every other day, or from Days 9-16 on established cysts, in the presence of forskolin
  cyst size, drug treatment regime incl. established cysts: dramatically reducing cyst size
[2]
  resting Ca2+: small reduction in resting Ca^2+
[2]; ATP 100 μM
  intracellular Ca2+ movement in response to ATP: no effect on intracellular Ca^2+ movement in response to ATP
[2]; thapsigargin 4 μM
  thapsigargin-induced release of Ca2+ from the ER: dramatically reduced the thapsigargin-induced release of Ca^2+ from the ER
[3]
  PC2 expression: no effect on PC2 expression
[4]
  localization of PC2: statistically significant move of PC2 from the ER to Golgi
[5]
  localization of CFTR: statistically significant move of CFTR from the ER to Basolateral and Apical Membrane
[6]
  Hsp90 expression in PN cells: reduced expression
